Measurements as given in ChEMBL document CHEMBL1201862, “PubChem BioAssay data set” (2004).
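Where inhibition never reached the appropriate level, the endpoint shown equals the highest concentration tested. Otherwise, values were interpolated linearly from a five-concentration, 48-hour dose response in 96-well plates. GI50 marks 50% less growth.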 Active and inactive are the calls of the source. Cut-off read from the data, not from the text of the source: active = GI50 up to about 1.1 µM and inactive = higher.

Columns and labels:
Assay in all cases: NCI tumour cell line growth inhibition, 48 h
786-0 = test system: 786-0
A498 = test system: A498
A549 = test system: A549
ACHN = test system: ACHN
BT-549 = test system: BT-549
CAKI-1 = test system: CAKI-1
COLO 205 = test system: COLO 205
DU-145 = test system: DU-145
EKVX = test system: EKVX
HCT-116 = test system: HCT-116
HCT-15 = test system: HCT-15
HL-60 = test system: HL-60
HOP-62 = test system: HOP-62
HOP-92 = test system: HOP-92
HT-29 = test system: HT-29
Hs-578T = test system: Hs-578T
IGROV-1 = test system: IGROV-1
K562 = test system: K562
KM12 = test system: KM12
LOX IMVI = test system: LOX IMVI
M14 = test system: M14
MCF7 = test system: MCF7
MDA-MB-231 = test system: MDA-MB-231
MDA-MB-435 = test system: MDA-MB-435
MDA-N = test system: MDA-N
MOLT-4 = test system: MOLT-4
Malme-3M = test system: Malme-3M
NCI-H226 = test system: NCI-H226
NCI-H23 = test system: NCI-H23
NCI-H460 = test system: NCI-H460
NCI-H522 = test system: NCI-H522
NCI/ADR-RES = test system: NCI/ADR-RES
OVCAR-3 = test system: OVCAR-3
OVCAR-4 = test system: OVCAR-4
OVCAR-5 = test system: OVCAR-5
OVCAR-8 = test system: OVCAR-8
PC-3 = test system: PC-3
RPMI-8226 = test system: RPMI-8226
RXF 393 = test system: RXF 393
SF-268 = test system: SF-268
SF-295 = test system: SF-295
SF-539 = test system: SF-539
SK-MEL-28 = test system: SK-MEL-28
SK-MEL-2 = test system: SK-MEL-2
SK-MEL-5 = test system: SK-MEL-5
SN12C = test system: SN12C
SNB-19 = test system: SNB-19
SNB-75 = test system: SNB-75
SR = test system: SR
SW-620 = test system: SW-620
T47D = test system: T47D
TK-10 = test system: TK-10
U-251 = test system: U-251
UACC-257 = test system: UACC-257
UACC-62 = test system: UACC-62
UO-31 = test system: UO-31
HCC 2998 = test system: HCC 2998
SK-OV-3 = test system: SK-OV-3

O=C(CSc1nc2ccccc2c2ccccc12)c1ccccc1
GI50 (786-0): > 100 µM (inactive)
GI50 (A498): > 100 µM (inactive)
GI50 (A549): > 100 µM (inactive)
GI50 (ACHN): > 100 µM (inactive)
GI50 (BT-549): > 100 µM (inactive)
GI50 (CAKI-1): > 100 µM (inactive)
GI50 (COLO 205): > 100 µM (inactive)
GI50 (DU-145): > 100 µM (inactive)
GI50 (EKVX): > 100 µM (inactive)
GI50 (HCT-116): > 100 µM (inactive)
GI50 (HCT-15): > 100 µM
GI50 (HL-60): > 100 µM (inactive)
GI50 (HOP-62): > 100 µM (inactive)
GI50 (HOP-92): > 100 µM (inactive)
GI50 (HT-29): > 100 µM (inactive)
GI50 (Hs-578T): 0.0226 µM (active)
GI50 (IGROV-1): > 100 µM (inactive)
GI50 (K562): > 100 µM (inactive)
GI50 (KM12): > 100 µM (inactive)
GI50 (LOX IMVI): > 100 µM (inactive)
GI50 (M14): > 100 µM (inactive)
GI50 (MCF7): > 100 µM (inactive)
GI50 (MDA-MB-231): > 100 µM (inactive)
GI50 (MDA-MB-435): > 100 µM (inactive)
GI50 (MDA-N): > 100 µM (inactive)
GI50 (MOLT-4): > 100 µM (inactive)
GI50 (Malme-3M): > 100 µM (inactive)
GI50 (NCI-H226): > 100 µM (inactive)
GI50 (NCI-H23): > 100 µM (inactive)
GI50 (NCI-H460): > 100 µM (inactive)
GI50 (NCI-H522): > 100 µM (inactive)
GI50 (NCI/ADR-RES): > 100 µM (inactive)
GI50 (OVCAR-3): > 100 µM (inactive)
GI50 (OVCAR-4): > 100 µM (inactive)
GI50 (OVCAR-5): > 100 µM (inactive)
GI50 (OVCAR-8): > 100 µM (inactive)
GI50 (PC-3): > 100 µM (inactive)
GI50 (RPMI-8226): > 100 µM (inactive)
GI50 (RXF 393): > 100 µM (inactive)
GI50 (SF-268): > 100 µM (inactive)
GI50 (SF-295): > 100 µM (inactive)
GI50 (SF-539): > 100 µM (inactive)
GI50 (SK-MEL-28): > 100 µM (inactive)
GI50 (SK-MEL-2): > 100 µM (inactive)
GI50 (SK-MEL-5): > 100 µM (inactive)
GI50 (SN12C): > 100 µM (inactive)
GI50 (SNB-19): > 100 µM (inactive)
GI50 (SNB-75): 13.8 µM (inactive)
GI50 (SR): > 100 µM (inactive)
GI50 (SW-620): > 100 µM (inactive)
GI50 (T47D): > 100 µM (inactive)
GI50 (TK-10): > 100 µM (inactive)
GI50 (U-251): > 100 µM (inactive)
GI50 (UACC-257): > 100 µM (inactive)
GI50 (UACC-62): > 100 µM (inactive)
GI50 (UO-31): > 100 µM (inactive)

O=c1ccc2ccc(S)cc2o1
GI50 (786-0): > 100 µM (inactive)
GI50 (A498): > 100 µM (inactive)
GI50 (A549): > 100 µM (inactive)
GI50 (ACHN): > 100 µM (inactive)
GI50 (BT-549): > 100 µM (inactive)
GI50 (CAKI-1): > 100 µM (inactive)
GI50 (COLO 205): > 100 µM (inactive)
GI50 (DU-145): > 100 µM (inactive)
GI50 (EKVX): > 100 µM (inactive)
GI50 (HCC 2998): > 100 µM (inactive)
GI50 (HCT-116): > 100 µM (inactive)
GI50 (HCT-15): > 100 µM
GI50 (HL-60): > 100 µM (inactive)
GI50 (HOP-62): > 100 µM (inactive)
GI50 (HOP-92): > 100 µM (inactive)
GI50 (HT-29): > 100 µM (inactive)
GI50 (Hs-578T): > 100 µM (inactive)
GI50 (IGROV-1): > 100 µM (inactive)
GI50 (KM12): > 100 µM (inactive)
GI50 (LOX IMVI): > 100 µM (inactive)
GI50 (M14): > 100 µM (inactive)
GI50 (MCF7): > 100 µM (inactive)
GI50 (MDA-MB-231): > 100 µM (inactive)
GI50 (MDA-MB-435): > 100 µM (inactive)
GI50 (MDA-N): > 100 µM (inactive)
GI50 (MOLT-4): 42 µM (inactive)
GI50 (Malme-3M): > 100 µM (inactive)
GI50 (NCI-H226): > 100 µM (inactive)
GI50 (NCI-H23): > 100 µM (inactive)
GI50 (NCI-H460): > 100 µM (inactive)
GI50 (NCI-H522): 87.3 µM (inactive)
GI50 (NCI/ADR-RES): > 100 µM (inactive)
GI50 (OVCAR-3): > 100 µM (inactive)
GI50 (OVCAR-4): > 100 µM (inactive)
GI50 (OVCAR-5): > 100 µM (inactive)
GI50 (OVCAR-8): > 100 µM (inactive)
GI50 (PC-3): > 100 µM (inactive)
GI50 (RPMI-8226): 99.8 µM (inactive)
GI50 (RXF 393): > 100 µM (inactive)
GI50 (SF-268): > 100 µM (inactive)
GI50 (SF-295): > 100 µM (inactive)
GI50 (SF-539): > 100 µM (inactive)
GI50 (SK-MEL-28): > 100 µM (inactive)
GI50 (SK-MEL-2): > 100 µM (inactive)
GI50 (SK-MEL-5): > 100 µM (inactive)
GI50 (SK-OV-3): > 100 µM (inactive)
GI50 (SN12C): > 100 µM (inactive)
GI50 (SNB-19): > 100 µM (inactive)
GI50 (SNB-75): > 100 µM (inactive)
GI50 (SR): > 100 µM (inactive)
GI50 (SW-620): > 100 µM (inactive)
GI50 (T47D): > 100 µM (inactive)
GI50 (TK-10): 92.5 µM (inactive)
GI50 (U-251): > 100 µM (inactive)
GI50 (UACC-257): > 100 µM (inactive)
GI50 (UACC-62): > 100 µM (inactive)
GI50 (UO-31): > 100 µM (inactive)
